For one test, the target named is MtMetAP1a (Mycobacterium tuberculosis, UniProt P9WK21). Briefly: MetAP enzyme inhibition assay. Type of test: biochemical. To be noted: for selectivity for both MtMetAPs over human MetAPs: MtMetAP1a and MtMetAP1c relative to HsMetAP1 and HsMetAP2, from IC50 values.
The target in the next test is MtMetAP1c (Mycobacterium tuberculosis, UniProt P9WK19). Briefly: MetAP enzyme inhibition assay. In kind it is biochemical.
A further test deals with M. tuberculosis H37Rv. As to the kind of experiment: Minimum Inhibitory Concentration in replicating M. tuberculosis. Type of test: cell-based, Mycobacterium tuberculosis. To be noted: ratio of M.I.C. values.
In test [1] the test system is aged non-growing M. tuberculosis H37Ra. As to the kind of experiment: Activity on aged non-growing M. tuberculosis. The following applies: 2 month old H37Ra culture, acid 7H9 pH5.5, 1% oxygen.

Chain of MtMetAP1a (P9WK21 whole entry): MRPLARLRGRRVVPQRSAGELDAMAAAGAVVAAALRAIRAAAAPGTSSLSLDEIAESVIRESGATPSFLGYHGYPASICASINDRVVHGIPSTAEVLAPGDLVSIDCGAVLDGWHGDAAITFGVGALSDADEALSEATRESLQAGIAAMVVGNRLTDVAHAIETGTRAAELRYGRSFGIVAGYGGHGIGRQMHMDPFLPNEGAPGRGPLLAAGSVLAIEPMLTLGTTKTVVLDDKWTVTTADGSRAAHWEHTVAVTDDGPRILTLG
Chain of MtMetAP1c (P9WK19 whole entry): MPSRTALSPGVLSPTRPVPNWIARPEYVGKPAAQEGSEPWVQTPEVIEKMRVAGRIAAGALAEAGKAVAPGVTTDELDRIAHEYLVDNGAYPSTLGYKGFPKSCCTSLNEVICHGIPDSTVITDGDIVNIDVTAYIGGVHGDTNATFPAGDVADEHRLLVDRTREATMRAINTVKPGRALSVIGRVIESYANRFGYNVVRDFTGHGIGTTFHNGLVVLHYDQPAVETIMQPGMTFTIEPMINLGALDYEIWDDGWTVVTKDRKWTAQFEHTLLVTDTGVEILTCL

The term IC50 denotes the midpoint of a concentration-inhibition curve. Regarding `Oc1c(Br)cc(Cl)c2cccnc12` [CLBQ14], at MtMetAP1a, half-maximal inhibition (IC50) was put at 5.44 µM and the “selectivity for both MtMetAPs over human MetAPs” value is “greater than 19 folds”. Besides, on MtMetAP1c, the IC50 came to 4.92 µM. Also, the “potency in replicating M. tuberculosis culture relative to CQ” value with M. tuberculosis H37Rv is on record as “two-fold”. Also, in test [1], the “M.I.C. Aged non-growing M. tuberculosis” value was 0.65 to 1.62 µg/mL.
For the compound `Oc1c(I)cc(Cl)c2cccnc12` [Clioquinol (CQ), clioquinol, reference compound], the IC50 against MtMetAP1a was 9.25 µM; on MtMetAP1c it was 11.2 µM. The “selectivity for both MtMetAPs over human MetAPs” value on MtMetAP1a is reported as “less than 10 folds”.

For the origin of these results see PMC11059541 (Tuberculosis (Edinburgh, Scotland), 2011).
